What was measured:
RAW264.7 macrophages = experiment: CellTiter-Glo Luminescent Cell Viability Assay; format: cell-based; conditions: 24-h exposure at 1–20,000 nM
Method: RAW264.7 cells were obtained from the National Infrastructure of Cell Line Resource of Beijing, China, and the cells used for the experiment were cultured for at least three passages. Dulbecco’s Modified Eagle’s Medium (DMEM)-F12 medium containing 10% fetal bovine serum (FBS) was employed to culture the RAW264.7 cells. RAW264.7 cells were incubated at 37°C with 5% carbon dioxide. The RAW264.7 cells were plated at 2.5×10^5 cells/well (6-well plates), 6.0×10^4 cells/well (24-well plates), and 10^4 cells/well (96-well plates). The RAW264.7 cells were plated and grown overnight; then the medium was removed and fresh DMEM-F12 contained with 0.1% DMSO (control; n=3 ) or TPHP at the concentrations of 1–20,000 nM ( n=3 per group) was added. […] Then the cells were used for the quantitative reverse transcription (qRT)-PCR, cellular cholesterol efflux assay, and foam cell formation experiment.
Cell viability was assessed using the CellTiter-Glo® Luminescent Cell Viability Assay based on the manufacturer’s instructions ( n=3 per group). Luminescence was assessed using an LB 941 TriStar multimode microplate reader (Berthold Technologies).

human LXRβ = target: T1, human LXRβ (Homo sapiens, UniProt P55055); experiment: Yeast two-hybrid assay (LXRβ LBD with coactivator TIF2, β-galactosidase readout)
T1 sequence (P55055 219-460): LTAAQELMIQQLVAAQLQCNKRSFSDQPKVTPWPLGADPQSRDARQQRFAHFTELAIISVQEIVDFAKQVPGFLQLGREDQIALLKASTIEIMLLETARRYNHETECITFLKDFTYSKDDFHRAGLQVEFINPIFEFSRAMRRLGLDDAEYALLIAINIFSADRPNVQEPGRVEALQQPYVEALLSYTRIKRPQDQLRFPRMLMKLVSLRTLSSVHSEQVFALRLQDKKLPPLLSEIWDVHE

[1] = Plasma lipids in ApoE−/− mice; format: in vivo, mouse; conditions: 13 weeks, mean±SE
From the text: All experiments related to animals were approved by the institutional animal care and use committee of Peking University and followed the guidelines for animal experiments of the university as well as for experimental animals in China. The biological effect size of the animal experiments was based on the previous paper ([Negro Silva et al. 2017]). C57BL/6 (12 weeks old) and ApoE^−/− mice (12 weeks old) were obtained from the Beijing Vital River Laboratory Animal Technology Company. Mice used in the experiments were acclimated to the housing unit 2 weeks before they were used for experiments, and they were randomly assigned to control or TPHP treatment groups. Five animals were housed to a cage, and mice were acclimatized to the controlled environment (temperature: 22±2°C; relative humidity: 40–60%; artificial lighting: 12 h:12 h light/dark). Mice received diet and drinking water ad libitum. Body weight (BW) was measured every week during the dosing period. Forty-five C57BL/6 mice and 27 ApoE^−/− mice were used in this study. Animal protocol 1: Male C57BL/6 mice (five mice per group) were fed a basic diet (Laboratory Animal Center of the Academy of Military Medical Sciences, China). On Day 0, mice were stimulated with paraffin oil by intraperitoneal injection. From Day 1 to Day 7, mice were exposed to corn oil (control) or TPHP (dissolved in corn oil) at 40 or 200mg/kg BW by daily oral gavage. The volume of the corn oil or TPHP in corn oil administered was 5mL/kg BW. On Day 8, after the mice were anesthetized by sodium pentobarbital via intramuscular injection, peritoneal macrophages were harvested from peritoneal lavage with 4mL pre-warmed DMEM-F12 (containing 10% FBS) using a 25-gauge needle; 5–10 min later, 3–3.5mL peritoneal fluid was collected, and the cells were isolated by centrifuge at 1,000 rpm for 5 min. The isolated cells were cultured in DMEM-F12 containing 10% FBS. After 4 h, the medium was changed, and the cells were cultured overnight. The cells were then used for the qRT-PCR, cellular cholesterol efflux assay, and foam cell formation experiment. The exposure period used in the present study was based on previous studies, in which peritoneal macrophages were harvested from mice treated with chemicals for 4–14 d ([Li et al. 2009]; [Saeed et al. 2012]). Considering that this study assessed the effects of short-term exposure to TPHP, whereas humans are exposed to TPHP over a lifelong period, the present study used exposure doses that were higher than that of human exposure from house dust. Animal protocol 2: Because wild-type mice are highly resistant to atherosclerosis, a well-established atherosclerosis model, the ApoE^−/− mouse, was used in the study. The male ApoE^−/− mice (nine mice per group) were fed a high-fat diet (D12108C; Research Diets Inc.) and exposed to corn oil (control) or TPHP (dissolved in corn oil) at 10 or 40mg/kg BW for 13 weeks by oral gavage. Mice were sacrificed 24 h after the last day of exposure with an overdose of sodium pentobarbital via intraperitoneal injection. Because the formation of atherosclerosis lesions required a long time, the exposure period used in the present study was based on previous studies in which the effects of chemicals on formation of atherosclerosis lesions were observed after an exposure period of 12–15 weeks ([Li et al. 2009]; [Negro Silva et al. 2017]; [Shi et al. 2016]). The doses of TPHP used in the ApoE^−/− model mouse referred to previous studies in which mice were treated with TPHP at 50–300mg/kg BW to observe significant adverse effects, including decreased testosterone levels and hypertriglyceridemia ([Chen et al. 2015]; [Morris et al. 2014]).
Treated ApoE^−/− mice ( n=9 per group) were fasted overnight, and heart puncture was used to collect the blood soon after each animal was sacrificed. The blood samples were then centrifuged ( 1,000×g , 10 min, 4°C) to separate the plasma, and the plasma was stored at −80°C . […]

[2] = 40mg/kg, n=9, p<0.05 vs control

## O=P(Oc1ccccc1)(Oc1ccccc1)Oc1ccccc1 [TPHP, triphenyl phosphate]
RAW264.7 macrophages
  Cell viability: no significant loss of cell viability
Human LXRβ; dust standard reference material SRM2585
  Contribution to the LXRβ-antagonist activity of SRM2585: 12.68%
Human LXRβ; range over indoor dust samples (Table S4)
  Share of the LXRβ-antagonist activity of indoor dust explained by the chemical: 0.37–32.60%
[1]; 10mg/kg, n=9
  Plasma HDL-C: 1.13 ± 0.05 mmol/L
  Plasma LDL-C: 10.53 ± 0.32 mmol/L
  Plasma cholesterol: 26.15 ± 1.34 mmol/L
  Plasma triglycerides: 0.92 ± 0.06 mmol/L
[1]; 40mg/kg, n=9
  Plasma HDL-C: 1.29 ± 0.05 mmol/L
  Plasma LDL-C: 10.27 ± 0.22 mmol/L
[1]; [2]
  Plasma cholesterol: 28.83 ± 1.90 mmol/L
  Plasma triglycerides: 1.06 ± 0.12 mmol/L

Source: PMC6927504, “Screening of House Dust from Chinese Homes for Chemicals with Liver X Receptors Binding Activities and Characterization of Atherosclerotic Activity Using an in Vitro Macrophage Cell Line and ApoE^−/− Mice” (Environmental Health Perspectives, 2019)
